From ChEMBL document CHEMBL1909046, “DrugMatrix in vitro pharmacology data”

Tests used:
[1] = DRUGMATRIX: Sodium/nucleoside co-transporter radioligand binding (ligand: nitrobenzylthioinosine); type: cell membranes, Cavia porcellus, Dunkin-Hartley, Cerebral cortex, Membrane; details: Not Active = under 50% inhibition at 10 µM
[2] = DRUGMATRIX: GABAA, Muscimol, Central radioligand binding (ligand: [3H] Muscimol); type: cell membranes, Rattus norvegicus, Wistar, Brain, Membrane; details: Not Active = under 50% inhibition at 10 µM
[3] = biological target: T1, Receptor-type tyrosine-protein phosphatase C (Homo sapiens, UniProt P08575); parameters: species or system Escherichia coli;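 also: inhibition of CD45 enzyme activity measured using DiFMUP as substrate; in other assays of this panel Not Active means under 50% inhibition at 10 µM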
T1 sequence (P08575 whole entry): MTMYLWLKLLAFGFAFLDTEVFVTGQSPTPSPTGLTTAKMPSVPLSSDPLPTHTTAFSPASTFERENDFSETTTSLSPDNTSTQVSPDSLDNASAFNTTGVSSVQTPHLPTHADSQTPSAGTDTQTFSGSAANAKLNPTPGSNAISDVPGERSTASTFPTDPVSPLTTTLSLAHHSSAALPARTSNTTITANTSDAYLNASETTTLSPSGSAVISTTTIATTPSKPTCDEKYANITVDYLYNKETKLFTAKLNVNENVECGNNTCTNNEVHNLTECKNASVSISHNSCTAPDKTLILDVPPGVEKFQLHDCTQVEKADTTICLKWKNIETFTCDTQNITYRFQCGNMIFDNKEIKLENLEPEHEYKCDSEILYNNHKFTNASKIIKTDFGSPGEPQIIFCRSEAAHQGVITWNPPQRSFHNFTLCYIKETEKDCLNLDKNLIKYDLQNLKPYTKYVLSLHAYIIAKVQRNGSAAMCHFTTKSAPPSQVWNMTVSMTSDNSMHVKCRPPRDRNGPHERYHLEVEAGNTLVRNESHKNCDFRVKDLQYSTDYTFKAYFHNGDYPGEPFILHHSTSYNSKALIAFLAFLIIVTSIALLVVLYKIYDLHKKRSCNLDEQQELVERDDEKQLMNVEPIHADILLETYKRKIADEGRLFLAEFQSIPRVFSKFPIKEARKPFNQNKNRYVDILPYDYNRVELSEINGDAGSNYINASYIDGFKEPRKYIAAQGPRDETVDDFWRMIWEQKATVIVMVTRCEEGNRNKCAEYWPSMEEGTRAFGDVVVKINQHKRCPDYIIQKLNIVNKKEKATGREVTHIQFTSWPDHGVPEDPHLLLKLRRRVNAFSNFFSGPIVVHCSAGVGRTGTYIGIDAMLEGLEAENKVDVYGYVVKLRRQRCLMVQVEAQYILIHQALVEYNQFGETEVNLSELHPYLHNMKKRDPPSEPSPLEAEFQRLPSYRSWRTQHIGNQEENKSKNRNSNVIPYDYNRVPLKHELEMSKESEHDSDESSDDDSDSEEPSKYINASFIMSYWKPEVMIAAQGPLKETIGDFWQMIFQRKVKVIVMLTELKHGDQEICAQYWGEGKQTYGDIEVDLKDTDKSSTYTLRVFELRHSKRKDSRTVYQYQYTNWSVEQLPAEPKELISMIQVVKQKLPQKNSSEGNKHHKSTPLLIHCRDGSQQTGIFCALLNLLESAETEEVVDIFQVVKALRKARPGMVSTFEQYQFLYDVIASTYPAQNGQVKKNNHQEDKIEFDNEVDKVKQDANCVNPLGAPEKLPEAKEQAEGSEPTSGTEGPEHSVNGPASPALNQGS

[4] = biological target: Kappa-type opioid receptor (Homo sapiens, UniProt P41145); test: DRUGMATRIX: Opiate kappa (OP2, KOP) radioligand binding (ligand: [3H] Diprenorphine); type: cell membranes, HEK293, Membrane; details: hek293; Not Active = under 50% inhibition at 10 µM
Sequence of Kappa-type opioid receptor (P41145 whole entry): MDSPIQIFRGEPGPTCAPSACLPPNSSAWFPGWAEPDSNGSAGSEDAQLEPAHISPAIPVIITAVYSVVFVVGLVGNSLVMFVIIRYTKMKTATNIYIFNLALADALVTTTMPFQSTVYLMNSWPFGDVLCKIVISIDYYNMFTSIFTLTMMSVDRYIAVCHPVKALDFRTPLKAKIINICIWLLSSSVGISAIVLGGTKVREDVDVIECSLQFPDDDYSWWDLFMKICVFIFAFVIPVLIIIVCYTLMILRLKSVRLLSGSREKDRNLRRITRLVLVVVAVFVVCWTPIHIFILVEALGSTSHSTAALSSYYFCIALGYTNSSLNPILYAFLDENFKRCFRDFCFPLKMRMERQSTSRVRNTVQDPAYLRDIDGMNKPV

[5] = biological target: Mitogen-activated protein kinase 3 (Homo sapiens, UniProt P27361); test: DRUGMATRIX: Protein Serine/Threonine Kinase, ERK1 enzyme inhibition (substrate: Myelin Basic Protein); parameters: species or system Escherichia coli; details: Not Active = under 50% inhibition at 10 µM
Sequence of Mitogen-activated protein kinase 3 (P27361 whole entry): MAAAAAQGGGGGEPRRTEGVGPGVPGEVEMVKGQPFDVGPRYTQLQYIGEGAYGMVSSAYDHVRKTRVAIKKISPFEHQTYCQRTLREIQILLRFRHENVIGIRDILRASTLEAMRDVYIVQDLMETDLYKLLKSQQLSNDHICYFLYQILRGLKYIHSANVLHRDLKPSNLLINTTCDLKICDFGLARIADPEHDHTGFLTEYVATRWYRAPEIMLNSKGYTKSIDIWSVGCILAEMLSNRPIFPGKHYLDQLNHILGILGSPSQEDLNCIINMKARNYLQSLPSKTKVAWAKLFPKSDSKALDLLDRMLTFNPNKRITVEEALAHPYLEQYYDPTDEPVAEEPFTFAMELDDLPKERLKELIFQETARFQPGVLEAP

[6] = DRUGMATRIX: Phorbol Ester radioligand binding (ligand: [3H] PDBu); type: cell membranes, Mus musculus, ICR, Brain, Membrane; details: Not Active = under 50% inhibition at 10 µM
[7] = biological target: T2, Nitric oxide synthase, inducible (Mus musculus, UniProt P29477); parameters: species or system Escherichia coli;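 also: inhibition of iNOS enzyme activity measured with L-arginine as substrate; in other assays of this panel Not Active means under 50% inhibition at 10 µM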
T2 sequence (P29477 whole entry): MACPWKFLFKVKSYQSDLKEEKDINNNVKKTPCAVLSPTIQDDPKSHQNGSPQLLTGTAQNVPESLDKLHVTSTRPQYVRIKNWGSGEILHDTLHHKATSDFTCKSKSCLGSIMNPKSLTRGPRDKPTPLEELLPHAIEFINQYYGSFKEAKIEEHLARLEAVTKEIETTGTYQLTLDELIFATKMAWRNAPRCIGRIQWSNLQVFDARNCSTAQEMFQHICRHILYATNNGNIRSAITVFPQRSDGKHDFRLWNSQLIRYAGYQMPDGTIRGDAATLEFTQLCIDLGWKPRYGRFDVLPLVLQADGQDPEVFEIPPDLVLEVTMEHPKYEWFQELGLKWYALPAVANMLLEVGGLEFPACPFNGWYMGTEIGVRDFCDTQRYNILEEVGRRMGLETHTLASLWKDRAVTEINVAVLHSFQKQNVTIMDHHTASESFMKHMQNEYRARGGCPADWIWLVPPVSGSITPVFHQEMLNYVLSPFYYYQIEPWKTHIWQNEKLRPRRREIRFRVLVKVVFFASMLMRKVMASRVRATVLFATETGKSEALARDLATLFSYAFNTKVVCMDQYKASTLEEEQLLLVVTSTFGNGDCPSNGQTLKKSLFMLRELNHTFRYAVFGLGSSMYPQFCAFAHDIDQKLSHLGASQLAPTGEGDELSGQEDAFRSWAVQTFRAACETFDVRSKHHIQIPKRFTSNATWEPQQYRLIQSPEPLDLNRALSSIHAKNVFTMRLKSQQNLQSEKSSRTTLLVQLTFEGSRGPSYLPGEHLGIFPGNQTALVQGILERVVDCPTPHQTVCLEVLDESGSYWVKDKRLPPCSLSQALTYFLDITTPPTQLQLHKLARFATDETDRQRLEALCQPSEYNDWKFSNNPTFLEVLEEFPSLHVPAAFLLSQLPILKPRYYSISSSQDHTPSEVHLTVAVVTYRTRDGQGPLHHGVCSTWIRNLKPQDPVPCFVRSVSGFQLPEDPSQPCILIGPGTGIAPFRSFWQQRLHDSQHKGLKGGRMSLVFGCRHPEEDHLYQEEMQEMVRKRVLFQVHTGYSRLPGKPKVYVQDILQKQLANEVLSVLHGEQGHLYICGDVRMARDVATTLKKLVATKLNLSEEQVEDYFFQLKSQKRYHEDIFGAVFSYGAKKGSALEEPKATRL

[8] = DRUGMATRIX: Calcium Channel Type L, Phenylalkylamine radioligand binding (ligand: [3H] (-)-Desmethoxyverapamil (D-888)); type: cell membranes, Rattus norvegicus, Wistar, Brain, Membrane; details: Not Active = under 50% inhibition at 10 µM

COc1ccc2[nH]c([S+]([O-])Cc3ncc(C)c(OC)c3C)nc2c1 (configuration not stated) [OMEPRAZOLE]
Not Active: IC50 [1] | Ki [1] | IC50 [2] | Ki [2] | IC50 [3] | IC50 [4] | IC50 [5] | IC50 [6] | Ki [6] | IC50 [7] | IC50 [8] | Ki [8]

Cc1nccn1CC1CCc2c(c3ccccc3n2C)C1=O (configuration not stated) [ONDANSETRON]
Not Active: IC50 [1] | Ki [1] | IC50 [2] | Ki [2] | IC50 [3] | IC50 [4] | IC50 [5] | IC50 [6] | Ki [6] | IC50 [7] | IC50 [8] | Ki [8]

CCn1cc(C(=O)O)c(=O)c2cc(F)c(N3CCN(C)CC3)cc21 [PEFLOXACIN]
Not Active: IC50 [1] | Ki [1] | IC50 [2] | Ki [2] | IC50 [3] | IC50 [4] | IC50 [5] | IC50 [6] | Ki [6] | IC50 [7] | IC50 [8] | Ki [8]

CCCCOc1ccc(OCCCN2CCOCC2)cc1 [PRAMOXINE]
Not Active: IC50 [1] | Ki [1] | IC50 [2] | Ki [2] | IC50 [3] | IC50 [4] | IC50 [5] | IC50 [6] | Ki [6] | IC50 [7] | IC50 [8] | Ki [8]

O=C(C1CCCCC1)N1CC(=O)N2CCc3ccccc3C2C1 (configuration not stated) [PRAZIQUANTEL]
Not Active: IC50 [1] | Ki [1] | IC50 [2] | Ki [2] | IC50 [3] | IC50 [4] | IC50 [5] | IC50 [6] | Ki [6] | IC50 [7] | IC50 [8] | Ki [8]

CCN(CC)CCOC(=O)c1ccc(N)cc1 [PROCAINE]
Not Active: IC50 [1] | Ki [1] | IC50 [2] | Ki [2] | IC50 [3] | IC50 [4] | IC50 [5] | IC50 [6] | Ki [6] | IC50 [7] | IC50 [8] | Ki [8]

CCCN(CCC)C(=O)C(CCC(=O)O)NC(=O)c1ccccc1 (configuration not stated) [PROGLUMIDE]
Not Active: IC50 [1] | Ki [1] | IC50 [2] | Ki [2] | IC50 [3] | IC50 [4] | IC50 [5] | IC50 [6] | Ki [6] | IC50 [7] | IC50 [8] | Ki [8]

NC(=O)c1cnccn1 [PYRAZINAMIDE]
Not Active: IC50 [1] | Ki [1] | IC50 [2] | Ki [2] | IC50 [3] | IC50 [4] | IC50 [5] | IC50 [6] | Ki [6] | IC50 [7] | IC50 [8] | Ki [8]

OC(CCN1CCCCC1)(c1ccccc1)C1CCCCC1 (configuration not stated) [TRIHEXYPHENIDYL]
Not Active: IC50 [1] | Ki [1] | IC50 [2] | Ki [2] | IC50 [3] | IC50 [4] | IC50 [5] | IC50 [6] | Ki [6] | IC50 [7] | IC50 [8] | Ki [8]

Cc1cc2cc3c(C)cc(=O)oc3c(C)c2o1 [TRIOXSALEN]
Not Active: IC50 [1] | Ki [1] | IC50 [2] | Ki [2] | IC50 [3] | IC50 [4] | IC50 [5] | IC50 [6] | Ki [6] | IC50 [7] | IC50 [8] | Ki [8]

CCCC(CCC)C(=O)O [VALPROIC ACID]
Not Active: IC50 [1] | Ki [1] | IC50 [2] | Ki [2] | IC50 [3] | IC50 [4] | IC50 [5] | IC50 [6] | Ki [6] | IC50 [7] | IC50 [8] | Ki [8]
